Patent US8455537B2, “Estrogen receptor modulators and uses thereof” (University of Medicine and Dentistry of New Jersey, priority 2006, dated 2013)

Experiments:
[1] = molecular target: T1, ERα (Homo sapiens, UniProt P03372); assay: NR peptide ERα ELISA kit, percentage of ER activation; format: biochemical; details: 25 μM sample; normalized to vehicle control (DMSO) = 100%; over 100% agonist, below 100% antagonist; MCF-7 nuclear extract as ER source
T1 construct: presence of both ER and PR in the MCF-7 nuclear extract; (kit); host or cells: MCF-7 nuclear extract
T1 sequence (P03372 1-595): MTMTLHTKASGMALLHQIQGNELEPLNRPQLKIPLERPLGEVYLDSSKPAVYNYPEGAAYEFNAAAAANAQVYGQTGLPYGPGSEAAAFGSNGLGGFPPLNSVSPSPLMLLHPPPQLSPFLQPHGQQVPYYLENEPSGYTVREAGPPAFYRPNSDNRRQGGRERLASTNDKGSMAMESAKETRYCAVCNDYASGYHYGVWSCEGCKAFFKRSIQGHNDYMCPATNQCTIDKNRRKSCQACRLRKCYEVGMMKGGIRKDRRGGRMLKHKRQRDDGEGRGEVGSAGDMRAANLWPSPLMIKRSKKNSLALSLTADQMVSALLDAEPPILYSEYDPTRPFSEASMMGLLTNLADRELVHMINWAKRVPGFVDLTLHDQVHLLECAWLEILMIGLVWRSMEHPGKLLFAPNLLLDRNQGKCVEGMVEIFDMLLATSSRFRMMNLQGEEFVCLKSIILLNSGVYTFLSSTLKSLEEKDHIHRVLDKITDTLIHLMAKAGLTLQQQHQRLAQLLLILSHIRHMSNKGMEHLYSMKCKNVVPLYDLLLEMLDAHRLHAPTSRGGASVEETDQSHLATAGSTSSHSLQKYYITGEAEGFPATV
Description: Relative units of light intensity for each test compound were normalized to the vehicle control (DMSO) and then expressed in percentage of ER activation. […] The data reported here represent results of three independent determinations in duplicate. Error bars represent the standard deviation of the three determinations.

[2] = molecular target: T2, estrogen receptor alpha (ERα) (Homo sapiens, UniProt P03372); assay: Gel filtration displacement assay, competitive binding with 3H-estradiol; details: test compound 10 μM; 25 nM 3H-estradiol; 10 ng purified full-length ERα; no cold ligand = 100%; lower = stronger binding
T2 construct: 10 ng of purified full-length ERα (Active Motif, Carlsbad, Calif.); purchased Active Motif, Carlsbad, Calif
T2 sequence (P03372 1-595): T1 sequence (P03372 1-595)
Description: A gel filtration displacement assay for estrogen receptor alpha (ERα) was employed to assess competitive binding by ER antagonists among the test compounds in 10 μM. ER binding assays were conducted in duplicate in 50 mM Tris-HCl, pH7.5, 1 mM EDTA, 20% Glycerol and 1 mM DTT buffer. Radioligands that were used include [6, 7-^3H] estradiol (specific activity 44 Ci/mmol, Amersham Biosciences).
Following 1-hour incubation, assays were terminated by filtration through Whatman GF/B filters. […] Counts were normalized to the negative controls (no cold ligand) as the percentage of bound radiolabeled-estradiol remaining after separating bound radioligand from free radioligand. The negative controls were taken as 100% bound radioligand remaining. […] Results are reported as the average values of three independent experiments in duplicate. Error bars represent standard deviation of the three determinations (FIG. 2).

Row | percentage of ER activation [1] [%] | percentage of bound radiolabeled-estradiol remaining [2] [%] | SMILES
1 | 51.7 | > 100 | CC#C[C@]1(O)CC[C@H]2[C@@H]3CCC4=CC(=O)CCC4=C3[C@@H](c3ccc(N(C)C)cc3)C[C@@]21C [mifepristone, reference compound]
2 | 69 | 89.8 | O=C1c2ccccc2C(=O)N1CN(C(=O)c1ccccc1)c1ccc(O)cc1 [Compound B]
3 | 53.1 | 65.9 | CCC(=O)C1=C(O)CCC(c2cccc(Oc3ccccc3)c2)C1=O (stereo not shown) [Compound A]

Row | SMILES | percentage of ER activation [1] [%] | percentage of bound radiolabeled-estradiol remaining [2] [%]
4 | C[C@]12CC[C@@H]3c4ccc(O)c(O)c4CC[C@H]3[C@@H]1CC[C@@H]2O [4-hydroxy estradiol] | 196.3 | –
